Laboratory results published in US8119691B2, “Method for treating airway hyper-responsiveness with lipoxin analogs” (National Institutes of Health (NIH), priority 2001, dated 2012).

Assays:
[1] = tested on: mouse ear skin; experiment: Eosinophil tissue infiltration: EPO activity in mouse ear skin after topical LTB4 plus PGE2; type: in vivo; details: topical LXa 10 μg per ear, LTB4 1 μg + PGE2 1 μg, 13-16 h
Protocol: FIG. 6. Expression of human ALX in transgenic mice prevents eosinophil trafficking. LTB4 (1 μg) and PGE2 (1 μg) were topically applied (13-16 h) to mouse ear skin and EPO activity in tissue biopsies was determined by bromination of HPA (see Methods). Values represent the mean±SEM for pmoles Br-HPA per μg total protein for Non-tg littermates (n=6) or BLT-tg (n=2) mice in the absence or presence of topical LXa (10 μg per ear) and 2 separate ALX-tg lines (n=4). *P<0.05 by Student's T-test compared to littermate controls.
Eosinophil tissue infiltration. […] EPO activity was monitored by mono-bromination of HPA (Br-HPA). […] Trimethyl silylated HPA, Br-HPA and d4-tyrosine were detected by GC-MS (GC model #6890, MS model #5973, Hewlett Packard, San Fernando, Calif.). […] EPO activity was quantitated by percent conversion of HPA to Br-HPA, taking into account the recovery of the internal standard (>80%) and normalized for the samples' protein content (determined by BioRad protein reagent) (BioRad, Hercules, Calif.).

[2] = tested on: murine dorsal air pouches; details: murine dorsal air pouches (refs. 7, 16); cited from earlier work

## COC(=O)CCC[C@H](O)[C@H](O)/C=C/C=C/C=C\C=C\[C@H](O)COc1ccc(F)cc1 [LXa, 15-epi,16-para-fluoro-phenoxy-LXA4-methyl ester]
[1]; Non-tg mice
  eicosanoid-stimulated skin EPO activity: inhibited eicosanoid-stimulated skin EPO activity
[1]; mice with increased expression of LTB4 receptors (BLT-tg)
  eicosanoid-stimulated skin EPO activity: inhibited eicosanoid-stimulated skin EPO activity
[2]
  neutrophil accumulation and exudate formation: blocks neutrophil accumulation and exudate formation
